# Data: patent US4138554A, “7-[D-α-(4-Hydroxy-1,5-naphthyridine-3-carboxamido)-α-phenyl (and p-hydroxyphenyl)acetamido]-3-carbamoyloxymethyl-3-cephem-4-carboxylic acids” (priority 1977, dated 1979)
# Like-named read-outs stand apart in the source and are kept apart here.
# How the values were obtained:
# S. aureus = assay: MIC by serial two-fold agar dilution (Mueller-Hinton agar), S. aureus; assay type: cell-based; settings: Staphylococcus aureus, read-out: MIC
# In short: (§1)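 Steers' apparatus delivers inocula onto Mueller-Hinton agar containing serial two-fold dilutions; MIC is recorded per strain.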
# Ps. aeruginosa A9843 = assay: Median curative dose in mice, infection with Ps. aeruginosa; assay type: in vivo; settings: Pseudomonas aeruginosa, A9843, sc
# Text: (§2) Median Curative Dose in Mgm./Kg.
# (§3) Upon Subcutaneous Injection in Mice
# S. aureus Smith = assay: Median curative dose in mice, infection with S. aureus Smith; assay type: in vivo; settings: Staphylococcus aureus, sc; subcutaneous injection in mice, S. aureus Smith, Table 4; read-out: Median Curative Dose (PD50)
# Text: as §2, §3
# P. mirabilis = assay: MIC by serial two-fold agar dilution (Mueller-Hinton agar), P. mirabilis; assay type: cell-based; settings: Proteus mirabilis; P. mirabilis, Table 1; read-out: MIC
# In short: (§4)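 Compounds were diluted two-fold serially into Mueller-Hinton agar, then organisms were applied using Steers' apparatus and MICs read. The primary panel comprised 31 test organisms, and the secondary evaluation 61 strains of P. aeruginosa.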
# S. marcescens = assay: MIC by serial two-fold agar dilution (Mueller-Hinton agar), S. marcescens; assay type: cell-based; settings: Serratia marcescens; S. marcescens, Table 1; read-out: MIC
# In short: as §4
# Klebsiella sp. = assay: MIC by serial two-fold agar dilution (Mueller-Hinton agar), Klebsiella sp.; assay type: cell-based; settings: Klebsiella sp., Table 1; read-out: MIC
# In short: as §4
# K. pneumoniae = assay: MIC by serial two-fold agar dilution (Mueller-Hinton agar), K. pneumoniae; assay type: cell-based; settings: Klebsiella pneumoniae, K. pneumoniae, Table 1
# In short: as §4
# Pseudomonas aeruginosa = assay: MIC by agar dilution against 61 strains of Pseudomonas aeruginosa, secondary evaluation; assay type: cell-based; settings: for Mean % Relative Activity (SPBC = 100%): P. aerug. (61 strains); for MIC: Pseudomonas aeruginosa
# In short: as §1
smiles,measurement,setting,value
"NC(=O)OCC1=C(C(=O)O)N2C(=O)C(NC(=O)[C@H](NC(=O)c3cnc4cccnc4c3O)c3ccccc3)[C@H]2SC1 (stereo partly drawn) [BB-S520, Sodium 7-[D-α-(4-hydroxy-1,5-naphthyridine-3-carboxamido)-α-phenylacetamido]-3-carbamoyloxymethyl-3-cephem-4-carboxylate]",MIC,"S. aureus; S. aureus BX-1633, Table 1",0.8 µg/mL
same,MIC,"S. aureus; S. aureus Smith (1st line), Table 1",0.8 µg/mL
same,MIC,"S. aureus; S. aureus Smith (2nd line), Table 1",1.6 µg/mL
same,MIC,"S. aureus; S. aureus, unnamed strain (4th S. aureus line), Table 1",25 µg/mL
same,MIC,"S. aureus; S. aureus, unnamed strain (5th S. aureus line), Table 1",1.6 µg/mL
same,MIC,"S. aureus; S. aureus, unnamed strain (6th S. aureus line), Table 1",50 µg/mL
same,ED50,"Ps. aeruginosa A9843; mice, P. aerug. A9843 infection, Table 5, read-out: PD50",37 mg/kg
same,ED50,"Ps. aeruginosa A9843; subcutaneous injection in mice, Ps. aeruginosa, Table 4, read-out: Median Curative Dose (PD50)",37 mg/kg
same,ED50,S. aureus Smith,0.8 mg/kg
same,MIC,P. mirabilis,0.4 µg/mL
same,MIC,S. marcescens,> 100 µg/mL
same,MIC,Klebsiella sp.,3.1 µg/mL
same,MIC,K. pneumoniae,1.6 µg/mL
same,Rel. Act. (SBPC=100%),"Pseudomonas aeruginosa; 61 strains of Pseudomonas aeruginosa, Table 7",1016%
same,Mean % Relative Activity (SPBC = 100%),"Pseudomonas aeruginosa; lot 1, Table 5",714%
same,Mean % Relative Activity (SPBC = 100%),"Pseudomonas aeruginosa; lot 2, Table 5",1016%
same,Mean % Relative Activity (Sulbenicillin = 100%),"Pseudomonas aeruginosa; Ps. aeruginosa (61 strains), from geometric means of MICs in Table 2",714%
same,MIC,"Pseudomonas aeruginosa; 61 strains of Pseudomonas aeruginosa, Table 7, read-out: Geometric Mean of MIC",2.4 µg/mL
same,MIC,"Pseudomonas aeruginosa; BBRI Pa-No. 1, D15, Table 2, read-out: MIC",12.5 µg/mL
same,MIC,"Pseudomonas aeruginosa; BBRI Pa-No. 1, D15, Table 7, read-out: MIC",6.3 µg/mL
same,MIC,"Pseudomonas aeruginosa; BBRI Pa-No. 2, VA, Table 2, read-out: MIC",3.1 µg/mL
same,MIC,"Pseudomonas aeruginosa; BBRI Pa-No. 2, VA, Table 7, read-out: MIC",3.1 µg/mL
same,MIC,"Pseudomonas aeruginosa; BBRI Pa-No. 3, 1449VA, Table 2, read-out: MIC",1.6 µg/mL
same,MIC,"Pseudomonas aeruginosa; BBRI Pa-No. 3, 1449VA, Table 7, read-out: MIC",0.8 µg/mL
same,MIC,"Pseudomonas aeruginosa; BBRI Pa-No. 4, H9 D113, Table 2, read-out: MIC",12.5 µg/mL
same,MIC,"Pseudomonas aeruginosa; BBRI Pa-No. 4, H9 D113, Table 7, read-out: MIC",1.6 µg/mL
same,MIC,"Pseudomonas aeruginosa; BBRI Pa-No. 5, M4865KC, Table 2, read-out: MIC",3.1 µg/mL
same,MIC,"Pseudomonas aeruginosa; BBRI Pa-No. 5, N4865KC, Table 7, read-out: MIC",0.8 µg/mL
same,MIC,"Pseudomonas aeruginosa; BBRI Pa-No. 6, No. 5, Table 2, read-out: MIC",25 µg/mL
same,MIC,"Pseudomonas aeruginosa; BBRI Pa-No. 6, No. 5, Table 7, read-out: MIC",12.5 µg/mL
same,MIC,"Pseudomonas aeruginosa; BBRI Pa-No. 7, Table 2, read-out: MIC",6.3 µg/mL
same,MIC,"Pseudomonas aeruginosa; BBRI Pa-No. 7, Table 7, read-out: MIC",3.1 µg/mL
same,MIC,"Pseudomonas aeruginosa; BBRI Pa-No. 8, Table 2, read-out: MIC",3.1 µg/mL
same,MIC,"Pseudomonas aeruginosa; BBRI Pa-No. 8, Table 7, read-out: MIC",3.1 µg/mL
same,MIC,"Pseudomonas aeruginosa; BBRI Pa-No. 9, Yale, Table 2, read-out: MIC",3.1 µg/mL
same,MIC,"Pseudomonas aeruginosa; BBRI Pa-No. 9, Yale, Table 7, read-out: MIC",1.6 µg/mL
same,MIC,"Pseudomonas aeruginosa; BBRI Pa-No. 10, Table 2, read-out: MIC",50 µg/mL
same,MIC,"Pseudomonas aeruginosa; BBRI Pa-No. 10, Table 7, read-out: MIC",25 µg/mL
same,MIC,"Pseudomonas aeruginosa; BBRI Pa-No. 11, Table 2, read-out: MIC",3.1 µg/mL
same,MIC,"Pseudomonas aeruginosa; BBRI Pa-No. 11, Table 7, read-out: MIC",3.1 µg/mL
same,MIC,"Pseudomonas aeruginosa; BBRI Pa-No. 12, Table 2, read-out: MIC",6.3 µg/mL
same,MIC,"Pseudomonas aeruginosa; BBRI Pa-No. 12, Table 7, read-out: MIC",3.1 µg/mL
same,MIC,"Pseudomonas aeruginosa; BBRI Pa-No. 14, Table 2, read-out: MIC",3.1 µg/mL
same,MIC,"Pseudomonas aeruginosa; BBRI Pa-No. 14, Table 7, read-out: MIC",0.8 µg/mL
same,MIC,"Pseudomonas aeruginosa; BBRI Pa-No. 15, Table 2, read-out: MIC",12.5 µg/mL
same,MIC,"Pseudomonas aeruginosa; BBRI Pa-No. 15, Table 7, read-out: MIC",6.3 µg/mL
same,MIC,"Pseudomonas aeruginosa; BBRI Pa-No. 16, No. 130, Table 2, read-out: MIC",0.8 µg/mL
same,MIC,"Pseudomonas aeruginosa; BBRI Pa-No. 16, No. 130, Table 7, read-out: MIC",0.4 µg/mL
same,MIC,"Pseudomonas aeruginosa; BBRI Pa-No. 17, H6 D114, Table 2, read-out: MIC",6.3 µg/mL
same,MIC,"Pseudomonas aeruginosa; BBRI Pa-No. 17, H6 D114, Table 7, read-out: MIC",3.1 µg/mL
same,MIC,"Pseudomonas aeruginosa; BBRI Pa-No. 18, H8 D121, Table 2, read-out: MIC",6.3 µg/mL
same,MIC,"Pseudomonas aeruginosa; BBRI Pa-No. 18, H8 D121, Table 7, read-out: MIC",1.6 µg/mL
same,MIC,"Pseudomonas aeruginosa; BBRI Pa-No. 19, Table 2, read-out: MIC",1.6 µg/mL
same,MIC,"Pseudomonas aeruginosa; BBRI Pa-No. 19, Table 7, read-out: MIC",0.8 µg/mL
same,MIC,"Pseudomonas aeruginosa; BBRI Pa-No. 20, Table 2, read-out: MIC",3.1 µg/mL
same,MIC,"Pseudomonas aeruginosa; BBRI Pa-No. 20, Table 7, read-out: MIC",3.1 µg/mL
same,MIC,"Pseudomonas aeruginosa; BBRI Pa-No. 21, Table 2, read-out: MIC",3.1 µg/mL
same,MIC,"Pseudomonas aeruginosa; BBRI Pa-No. 21, Table 7, read-out: MIC",3.1 µg/mL
same,MIC,"Pseudomonas aeruginosa; BBRI Pa-No. 23, Table 2, read-out: MIC",6.3 µg/mL
same,MIC,"Pseudomonas aeruginosa; BBRI Pa-No. 23, Table 7, read-out: MIC",1.6 µg/mL
same,MIC,"Pseudomonas aeruginosa; BBRI Pa-No. 24, Table 2, read-out: MIC",50 µg/mL
same,MIC,"Pseudomonas aeruginosa; BBRI Pa-No. 24, Table 7, read-out: MIC",25 µg/mL
same,MIC,"Pseudomonas aeruginosa; BBRI Pa-No. 25, Table 2, read-out: MIC",1.6 µg/mL
same,MIC,"Pseudomonas aeruginosa; BBRI Pa-No. 25, Table 7, read-out: MIC",0.8 µg/mL
same,MIC,"Pseudomonas aeruginosa; BBRI Pa-No. 26, Ps32, Table 2, read-out: MIC",3.1 µg/mL
same,MIC,"Pseudomonas aeruginosa; BBRI Pa-No. 26, Ps32, Table 7, read-out: MIC",6.3 µg/mL
same,MIC,"Pseudomonas aeruginosa; BBRI Pa-No. 28, CPH1C527/72, Table 7, read-out: MIC",3.1 µg/mL
same,MIC,"Pseudomonas aeruginosa; BBRI Pa-No. 28, CPH10527/72, Table 2, read-out: MIC",6.3 µg/mL
same,MIC,"Pseudomonas aeruginosa; BBRI Pa-No. 29, D122, Table 2, read-out: MIC",1.6 µg/mL
same,MIC,"Pseudomonas aeruginosa; BBRI Pa-No. 29, D122, Table 7, read-out: MIC",1.6 µg/mL
same,MIC,"Pseudomonas aeruginosa; BBRI Pa-No. 30, Table 2, read-out: MIC",3.1 µg/mL
same,MIC,"Pseudomonas aeruginosa; BBRI Pa-No. 30, Table 7, read-out: MIC",1.6 µg/mL
same,MIC,"Pseudomonas aeruginosa; BBRI Pa-No. 31, Table 2, read-out: MIC",1.6 µg/mL
